Measurements taken from patent US10520488B2, “Method and measuring device for determination of the growth rate of biofilm” (Helmholtz-Zentrum fuer Infektionsforschung GmbH, priority 2014, dated 2019).

Key:
Format in all cases: cell-based, Pseudomonas aeruginosa
[1] = system: PA14 biofilms; assay: Impedance analysis (xCELLigence cell index) of PA14 biofilm growth rate / biofilm formation
Procedure: The biomass Pseudomonas aeruginosa had been measured as an exemplary biomass. Eventually also other strains can be analyzed. The 96 E-Plate had been used for a measuring time of 43 hours. The fluid culture medium LB had been introduced into the receptacles together with wild type (WT) PA14, ΔpelA deletion mutant or ΔpqsA, respectively.
A significant linear reduction of the negative cell index occurs after about 35 hours and more preferably in the time frame of the 37 hours to 42 hours. Within this time frame of 37 hours to 42 hours, the directional cell index RK=(cell index[t2]−cell index[t1])/(t2−t1) is decreasing. Thus, for such a short time frame, the value of the cell index change provides the directional cell index RK, which corresponds to the linear relation between the capacitance and the reactance having the general form of a straight line. Optionally, and in particular in case of evaluating longer time frames, the growth rate of biofilm can be calculated as function of the natural logarithm of the cell index, e.g. by the formula RK=ln(cell index[t2]−cell index[t1])/(t2−t1).
The impedance method has also been used to study the effect of antibiotics on biofilm formation of P. aeruginosa PA14. The results of the impact of ciprofloxacin (A), tobramycin (B), and meropenem (C) on biofilm formation of PA14 are shown in FIGS. 8 to 10. As examples, the antibiotics ciprofloxacin (FIGS. 8a)-c)), tobramycin (FIGS. 9a)-c)) and meropenem (FIGS. 10a)-c)) have been tested. All three antibiotics changed the impedance curves in a concentration-dependent manner, indicating effects on biofilm formation.
The effect on impedance was quantified by three parameters at varying antibiotic concentrations:
The first parameter is the time of onset of a linear decrease of the cell index, (FIGS. 8a), 9a) and 10a)).
The second parameter is the duration of a linear decrease of the cell index. This duration was determined by a linear trendline that was fitted to the data with an r^2 value of 0.97 or higher. In the graphs of FIGS. 8a), 9a) and 10a), the black vertical bars represent the time period over which the biofilm formation rate was measured to be steady, based on a straight line assigned with an r^2 of at least 0.97 (n=3 or 4).
The third parameter was the cell index slope during that time period (FIGS. 8b), 9b) and 10b)). These graphs show the concentration dependency of the biofilm formation expressed in the slope/h of the cell index (n=3 or 4).

[2] = system: PA14 biofilms; assay: Crystal violet analysis of PA14 biofilms, absorption at 620 nm; conditions: added to wild type WT PA14, LB medium, 96-Well-Plate, after 43 hours, compared to WT alone
Procedure: FIG. 5—Diagram of PA 14 biofilms determined after 43 hours with crystal violet by monitoring absorption at 620 nm;
FIG. 5 is a diagram of various types of PA14 biofilms measured by use of the 96-Well-Plate after 43 hours by use of the fluid culture medium LB with crystal violet analysis by monitoring absorption at 620 nm.

[3] = system: PA14; assay: Planktonic growth curves of PA14 by OD600 (control experiment)
Excerpt: OD600 indicates the absorbance, or optical density, of a sample measured at a wavelength of 600 nm and indicates the concentration of cells in a liquid.

N=C(N)NCCC[C@H](N)C(=O)O [L-Arg, arginine]
directional cell index RK ([1]; 0.4% or 0.8% L-Arg added to wild type WT, evaluation time 37 to 42 hours): about −0.004 /h | reduction of the biofilm growth rate ([1]; 0.4% or 0.8% L-Arg, PA14 WT, LB, evaluation time 37 to 42 hours): about ½ | growth of biofilm (crystal violet) [2]: inhibits the growth of biofilm

O=C(O)c1cn(C2CC2)c2cc(N3CCNCC3)c(F)cc2c1=O [ciprofloxacin]
impedance curve reflecting biofilm formation ([1]; 0.13 μg/mL): clearly changed the impedance curve | steady biofilm formation ([1]; 0.25 μg/mL): not observed anymore | cell index slope (biofilm formation) ([1]; at increasing concentrations): shallower decline | planktonic growth ([3]; 0.13 μg/mL): not impaired | planktonic growth ([3]; 0.25 μg/mL): still possible

C[C@@H](O)[C@H]1C(=O)N2C(C(=O)O)=C(S[C@@H]3CN[C@H](C(=O)N(C)C)C3)[C@H](C)[C@H]12 [meropenem]
induction of biofilm formation (cell index slope) ([1]; 0.5 μg/ml): this effect vanished | cell index slope (biofilm formation) ([1]; concentrations between 0.063 and 0.25 μg/ml): induced biofilm formation

NC[C@H]1O[C@H](O[C@H]2[C@H](O)[C@@H](O[C@H]3O[C@H](CO)[C@@H](O)[C@H](N)[C@H]3O)[C@H](N)C[C@@H]2N)[C@H](N)C[C@@H]1O [tobramycin]
cell index slope (biofilm formation) ([1]; at increasing concentrations): shallower decline
